Assay results taken from US5679644A, “Methods of treating diseases using triterpenoid acid derivatives” (Glycomed Incorporated, priority 1995, dated 1997).
pIC50: −log10 of the molar value. Values joined by “and” are separate entries in the source; they are usually repeats but may differ in a detail not shown here. Equal values may be shown once. “Also recorded” adds a separate entry of the source. One block for each compound: values may come before it.

Columns and labels:
5-Lipoxygenase [1] = target: T1, 5-Lipoxygenase (Rattus norvegicus, UniProt P12527); test: Inhibition of 5-Lipoxygenase, crude enzyme preparation from rat basophilic leukemia cells (RBL-1); type: biochemical
T1 construct: crude enzyme preparation from rat basophilic leukemia cells (RBL-1); endogenous in cells; host or cells: RBL-1 (rat basophilic leukemia cells)
T1 sequence (P12527 1-673): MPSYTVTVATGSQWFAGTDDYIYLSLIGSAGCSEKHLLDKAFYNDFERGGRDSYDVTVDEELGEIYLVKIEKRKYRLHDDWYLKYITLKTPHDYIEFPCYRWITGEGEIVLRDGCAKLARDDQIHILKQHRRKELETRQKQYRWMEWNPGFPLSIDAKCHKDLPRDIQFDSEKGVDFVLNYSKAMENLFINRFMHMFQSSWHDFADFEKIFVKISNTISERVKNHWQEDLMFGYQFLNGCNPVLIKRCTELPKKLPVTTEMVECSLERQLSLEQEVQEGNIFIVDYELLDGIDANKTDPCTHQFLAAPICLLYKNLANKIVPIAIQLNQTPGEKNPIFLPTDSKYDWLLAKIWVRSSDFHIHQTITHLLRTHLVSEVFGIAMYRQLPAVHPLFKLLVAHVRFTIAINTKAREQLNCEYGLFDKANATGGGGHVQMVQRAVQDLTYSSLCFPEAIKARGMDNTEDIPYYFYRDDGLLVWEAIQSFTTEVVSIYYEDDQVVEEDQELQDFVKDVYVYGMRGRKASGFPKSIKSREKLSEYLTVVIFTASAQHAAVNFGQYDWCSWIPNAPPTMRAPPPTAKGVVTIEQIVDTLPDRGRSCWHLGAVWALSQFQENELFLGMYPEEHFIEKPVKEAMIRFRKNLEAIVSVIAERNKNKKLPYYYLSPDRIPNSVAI
Procedure: Thus, compounds that inhibit 5-lipoxygenase will have significant medical applications that require regulating or lowering leukotriene levels. Thus, the compounds of the instant invention were assayed for their capacity to inhibit 5-lipoxygenase. 5-Lipoxygenase assays were run using a crude enzyme preparation from rat basophilic leukemia cells (RBL-1) ([…]. and Samuelsson, B. Proc. Natl. Acad. Sci. […] W. and […]. Biol. Chem. (1985) 260:11554-11559). Test compounds were pre-incubated with the enzyme for 5 minutes at room temperature and the reaction is initiated by addition of substrate, […]. Following an 8 minute incubation at room temperature, the reaction was terminated by addition of NaOH, and absorbance read at 234 nm to determine levels of 5-HETE. Compounds were screened at 50 μM.

[2] = J. Med. Chem. (1974) 17(2):184-191; cited from earlier work
5-lipoxygenase [3] = details: Sotomatsu et al. 1959; Inoue et al. 1986; cited from earlier work
E-Selectin = E-Selectin chimera binding to fixed LS174T colon carcinoma cells; type: cell-based; details: for interference with cancer cell binding to E-selectin (in words): LS174T colon carcinoma cells; for pIC50: lowest concentration from serial two-fold dilutions which inhibits by 50% or more relative to control, range, read-out: IC50 of Compound in Assay of E-Selectin Binding To Fixed LS174T Colon Carcinoma Cells (Range)
Procedure: Experiments were conducted to determine the capacity of the invention compounds to interfere with the binding of cancer cells to E-selectin. The compounds were dissolved in dimethylformamide (DMF) prior to being assayed. […] The mixture was rotated briskly on a rotary platform at room temperature for 30-60 minutes. Particulate matter was then removed by centrifugation, and the soluble fraction was transferred onto 96-well microtiter plates containing glutaraldehyde fixed LS174T colon carcinoma cells. […] Plates were developed in the dark and read at 405 nm. […] DMF (vehicle) typically had no effect. […] For all but 18-beta-glycyrrhetinic acid the compounds had low IC50 values, thus indicating their suitability for the treatment or prevention of certain forms of metastatic cancers.

[4] = test system: arachidonic acid-induced ear swelling; test: Arachidonic acid (AA) murine skin (ear) inflammation model, topical administration; type: in vivo; details: for anti-inflammatory activity (in words): arachidonic acid murine skin inflammation model
Procedure: Using the arachidonic acid (AA), murine skin inflammation model, described by Harris, R. R. et al. (Skin Pharmacol (1990) 3:2940) the anti-inflammatory activity of 1-[3-O-(18-β-Glycyrrhetinic acid)]-2-(α-L-C-methylfucopyranose)-2',3'-propanediol (5) was tested. For comparison, 18-β-glycyrrhetinic acid was also tested. All compounds were dissolved at 100 mg/mL in methanol or chloroform (18-β-glycyrrhetinic acid) except compound (5) which was at 0.80 mg/mL. 10 μL of each compound was applied to the ear. AA was applied alone, or followed immediately with 1-[3-O-(18-β-Glycyrrhetinic acid)]-2-(α-L-C-methylfucopyranose)-2',3'-propanediol (5) or 18-β-glycyrrhetinic acid. 90 minutes later a 6 mm disk of each ear was removed and weighed.

P-selectin [5] = test: P-selectin binding to HL-60 cells; type: cell-based; details: HL-60 assay; for pIC50: P-selectin 200 ng/ml, read-out: IC50 for interfering with P-selectin binding to HL-60 cells
Procedure: (§1) In addition to E-selectin binding, certain of the invention compounds were tested for their capacity to inhibit P-selectin binding to cancer cells, and to a chemical known to bind to P-selectin, 2,3 sLex. The following materials and procedures were used.
(§2) Compound Preparation. Compound (5) of Example 5, and compound (8) of Example 8 were solubilized in DMF to yield a 100 mM solution.
(§3) P-Selectin Detection Solutions. Goat F(ab')2 anti-human IgG (Fc spec.)biotin and streptavidin-AP were diluted 1:1000 in 1% BSA-TBS with 1 mM Ca. An Elisa assay was utilized to measure P-selectin binding to 2,3 sLex, and P-selectin was added at 300 ng/ml. An Elisa assay was also used to assay for the capacity of the invention compounds to inhibit cancer cell binding to P-selectin. HL-60 cancer cells were used, and P-selectin was added at 200 ng/ml.
(§4) Plate Preparation. 2,3 sLex was coated at 30 pmoles/well to Probind microtiter plates for Elisa. The glycolipid was added at 50 μl/well in 50% MeOH and allowed to evaporate overnight. Elisa plates and HL-60 assay plates were blocked with 5% BSA-TBS Ca^++ for more than an hour at room temperature. The plates were washed with TBS without Ca^++.
Cell Preparation. HL-60 cells were harvested by centrifugation, washed with TBS no Ca^++, counted, and the density adjusted to 2×10^6 /ml in 1% BSA-TBS Ca^++.
(§5) Assay. Briefly, the assays were conducted as follows. Compounds (5) and (8) were added to P-selectin detection solutions at 4, 2, 1, 0.5, 0.25 and 0.125 mM for the HL-60 based assay, and at 2, 1, 0.5, 0.25, 0.125 and 0.063 mM for the assay involving 2,3 sLex. DMF solutions were added directly to 1% BSA/TBS-Ca for dilutions through 0.5 mM. Lower concentrations were made in serial two-fold dilutions in BSA-TBS. These solutions were incubated at room temperature on a rotating platform for 1 hour, centrifuged to pellet particulate matter, and then added in triplicate for 2,3 sLex coated plates, or quadruplicate for HL-60 cells at 50 μl/well. An equal volume of HL-60 cells was added to wells for the cell based assay. The 2,3 sLex coated plates were incubated at 37° C. for 45 minutes, washed 3× with TBS, and 50 μl of substrate added to each well. Plates with HL-60 cells were incubated at 4° C. for 1 hour, the cells pelleted by centrifugation and washed 3× with TBS. For both assays, substrate was added at 75 μl/well. After color developed to an appropriate intensity, 50 μl/well was transferred to another plate for O.D. determination at 405 nm.

P-selectin [6] = test: Elisa of P-selectin binding to 2,3 sLex; details: for pIC50: Elisa, P-selectin 300 ng/ml, read-out: IC50 for inhibiting P-selectin binding to 2,3 sLex
Procedure: as §1, §2, §3, §4
as §5, with “Plates with HL-60 cells were incubated at 4° C. for 1 hour, the cells pelleted by centrifugation and washed 3× with TBS. For both assays, substrate was added at 75 μl/well. After color developed to an appropriate intensity, 50 μl/well was transferred to another plate for O.D. determination at 405 nm.” left out

Compound: CC1(C)[C@@H](O)CC[C@]2(C)[C@H]3CC=C4[C@@H]5C[C@@](C)(C(=O)O)CC[C@]5(C)CC[C@@]4(C)[C@]3(C)CC[C@@H]12 [11-Deoxoglycyrrhetinic acid]
aldosterone (DCA)-like activity (in words) [2]: does not substantially show the DCA activity of the parent compound

Compound: CC1(C)[C@@H](O)CC[C@]2(C)[C@H]3C(=O)C=C4[C@@H]5C[C@@](C)(C(=O)O)CC[C@]5(C)CC[C@@]4(C)[C@]3(C)CC[C@@H]12 [Glycyrrhetinic acid]
inhibition of enzymes involved in leukotriene biosynthesis, including 5-lipoxygenase (in words) (5-lipoxygenase [3]): shown to inhibit enzymes involved in leukotriene biosynthesis, including 5-lipoxygenase activity

Compound: CC(CO[C@H]1CC[C@]2(C)[C@H]3C(=O)C=C4[C@@H]5C[C@@](C)(C(=O)O)CC[C@]5(C)CC[C@@]4(C)[C@]3(C)CC[C@H]2C1(C)C)C[C@@H]1O[C@@H](C)[C@@H](O)[C@@H](O)[C@@H]1O (stereo partly drawn) [(3), 1-[3-O-(18-β-Glycyrrhetinic acid)]-2-(α-L-C-methylfucopyranose)-propane]
interference with cancer cell binding to E-selectin (in words) (E-Selectin): markedly lower IC50 values relative to 18-beta-glycyrrhetinic acid | pIC50 (E-Selectin): 3.90 to 4.22 | anti-inflammatory activity (in words) [4]: significant anti-inflammatory activity

Compound: CC1(C)[C@@H](O)CC[C@]2(C)[C@H]3C(=O)C=C4[C@@H]5C[C@@](C)(C(=O)O)CC[C@]5(C)CC[C@@]4(C)[C@]3(C)CC[C@@H]12 [18-β-glycyrrhetinic acid]
inhibition at 100 µM (5-Lipoxygenase [1]): 36% | inhibition at 1000 µM (5-Lipoxygenase [1]): 81% | pIC50 (E-Selectin): 3.30 to 3.90

Compound: C[C@@H]1O[C@@H](CC(O)(CO)CO[C@H]2CC[C@]3(C)[C@H]4C(=O)C=C5[C@@H]6C[C@@](C)(C(=O)O)CC[C@]6(C)CC[C@@]5(C)[C@]4(C)CC[C@H]3C2(C)C)[C@@H](O)[C@H](O)[C@@H]1O (stereo partly drawn) [Compound (5), 1-[3-O-(18-β-Glycyrrhetinic acid)]-2-(α-L-C-methylfucopyranose)-2',3'-propanediol]
interference with P-selectin binding to HL-60 cells (in words) (P-selectin [5]): interfered with P-selecting binding to HL-60 cells in a dose dependent manner, but was again less effective than compound (8) | pIC50 (P-selectin [5]): ~2.70 | inhibition at 100 µM (5-Lipoxygenase [1]): 20% | inhibition at 1000 µM (5-Lipoxygenase [1]): 74% | inhibitory activity relative to glycyrrhizin (in words) (5-Lipoxygenase [1]; both concentrations tested): significantly greater inhibitory activity | interference with cancer cell binding to E-selectin (in words) (E-Selectin): markedly lower IC50 values relative to 18-beta-glycyrrhetinic acid | pIC50 (E-Selectin): 3.90 to 4.22 | inhibition of P-selectin binding to sLex (in words) (P-selectin [6]): did inhibit P-selectin binding to sLex, it was less effective than compound (8) | pIC50 (P-selectin [6]): > 3.00 and < 3.30 | anti-inflammatory activity (in words) [4]: significant anti-inflammatory activity | percent inhibition of swelling caused by AA alone ([4]; topical, 10 μL of 0.80 mg/mL solution, 90 minutes): about 71% | % Inhibition of Swelling ([4]; topical, arachidonic acid ear model, 800 μg applied): 71.3%

Second part, led by results:

inhibition at 100 µM (5-Lipoxygenase [1]): 9% | inhibition at 1000 µM (5-Lipoxygenase [1]): 31%
Compound: CC1(C)[C@@H](O[C@H]2O[C@H](C(=O)O)[C@@H](O)[C@H](O)[C@H]2O[C@@H]2O[C@H](C(=O)O)[C@@H](O)[C@H](O)[C@H]2O)CC[C@]2(C)[C@H]3C(=O)C=C4[C@@H]5C[C@@](C)(C(=O)O)CC[C@]5(C)CC[C@@]4(C)[C@]3(C)CC[C@@H]12 [Glycyrrhizin]

pIC50 (P-selectin [5]): ~3.12 | pIC50 (E-Selectin): 3.60 to 4.22 | pIC50 (P-selectin [6]): ~3.90
Compound: C[C@@H]1O[C@@H](CC(=O)CO[C@H]2CC[C@]3(C)[C@H]4C(=O)C=C5[C@@H]6C[C@@](C)(C(=O)O)CC[C@]6(C)CC[C@@]5(C)[C@]4(C)CC[C@H]3C2(C)C)[C@@H](O)[C@H](O)[C@@H]1O [(8), 1-[3-O-(18-β-Glycyrrhetinic acid)]-2-oxo-2-(α-L-C-methylfucopyranose)-ethane]
interference with P-selectin binding to HL-60 cells (in words) (P-selectin [5]): interfered with P-selectin binding to HL-60 cells in a dose dependent way | anti-inflammatory activity (in words) [4]: activity similar to compounds (3) and (5); also recorded: significant anti-inflammatory activity
